Values after ≈ are worked out from the molar mass of the structure shown. Values joined by “and” are separate entries in the source; they are usually repeats but may differ in a detail not shown here. Equal entries are not always repeated. Where two headings read alike, the source gives them in different places. Residues, ends and D or L forms follow the SMILES beside them.
Assays:
[1] = tested on: P. aeruginosa ATCC 27853; assay: Neutropenic mouse bloodstream infection model; format: in vivo; details: single IV dose 4 mg/kg; for Log10 CFU/mL blood at 4 h, Mean / Δlog10 CFU/mL blood (mean) / Log10 CFU/mL blood at 4 h, single mouse: 4 h; for Δlog10 CFU/mL blood (mean): treated minus control, mean of replicates; for Δlog10 CFU/mL blood (mean) / Log10 CFU/mL blood at 4 h, single mouse / Delta Log10 CFU/mL blood at 4 h, single mouse: 4 mg/kg; for Delta Log10 CFU/mL blood at 4 h, single mouse: treated mouse minus mean of vehicle mice
Procedure, shortened: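 Female Swiss mice made neutropenic with cyclophosphamide (150 mg/kg day −4, 100 mg/kg day −1), infected IV with 50 µL of 4 × 10^8 CFU/mL. Lipopeptide 4 mg/kg (free base) IV at 2 h post-inoculation, n = 3. Efficacy = Δlog10 CFU/mL blood versus saline at 4 h post-dose.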

[2] = tested on: Swiss mice, kidney; assay: Nephrotoxicity in mice (kidney histopathology); format: in vivo, mouse; details: for Kidney histopathology (SQS Score): n = 3
Procedure, shortened: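 Female Swiss mice (7-week-old, 22–28 g) received lipopeptides in saline either s.c. at 12 mg/kg ×6 every 2 h (total 72 mg/kg, n = 3) or i.p. at 20 or 25 mg/kg ×6 every 2 h (total 120 mg/kg, n = 6; 150 mg/kg, n = 3). Right kidney collected 20 h after last dose, fixed in 10% buffered formalin (pH 7.4), histology scored blinded.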

[3] = tested on: K. pneumoniae FADDI-KP032; format: cell-based, Klebsiella pneumoniae
Procedure, shortened: (§1)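 MICs were determined by broth microdilution in cation-adjusted Mueller–Hinton broth (CaMHB), with clinical isolates tested alongside ATCC strains.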

[4] = tested on: K. pneumoniae FADDI-KP065; format: cell-based, Klebsiella pneumoniae
Procedure, shortened: as §1

[5] = tested on: A. baumannii FADDI-AB034; format: cell-based, Acinetobacter baumannii
Procedure, shortened: as §1

[6] = tested on: A. baumannii FADDI-AB030; format: cell-based, Acinetobacter baumannii
Procedure, shortened: as §1

[7] = tested on: A. baumannii ATCC 19606; format: cell-based, Acinetobacter baumannii
Procedure, shortened: (§2)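 Read-out is the minimum inhibitory concentration, obtained by serially diluting compound in cation-adjusted Mueller–Hinton medium and exposing each isolate in microdilution format.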

[8] = tested on: P. aeruginosa FADDI-PA038; format: cell-based, Pseudomonas aeruginosa
Procedure, shortened: as §1

[9] = tested on: P. aeruginosa FADDI-PA025; format: cell-based, Pseudomonas aeruginosa
Procedure, shortened: as §1

[10] = tested on: P. aeruginosa ATCC 27853; format: cell-based, Pseudomonas aeruginosa
Procedure, shortened: as §2

[11] = 72 mg/kg/d subcutaneously in six divided doses every 2 h

SMILES | Log10 CFU/mL blood at 4 h, Mean [1] [Log10 CFU/mL blood] | Δlog10 CFU/mL blood (mean) [1] [log10 CFU/mL blood] | Log10 CFU/mL blood at 4 h, single mouse [1] | Delta Log10 CFU/mL blood at 4 h, single mouse [1] | Kidney histopathology (SQS Score) [2, 11] | Kidney histopathology, mice with the SQS score ([2]; mouse, in vivo) | MIC K. pneumoniae FADDI-KP032 ([3]; FADDI-KP032) [µg/mL] | MIC K. pneumoniae FADDI-KP065 ([4]; FADDI-KP065) [µg/mL] | MIC A. baumannii FADDI-AB034 ([5]; FADDI-AB034) [µg/mL] | MIC A. baumannii FADDI-AB030 ([6]; FADDI-AB030) [µg/mL] | MIC A. baumannii ATCC 19606 ([7]; ATCC 19606) [µg/mL] | MIC P. aeruginosa FADDI-PA038 ([8]; FADDI-PA038) [µg/mL] | MIC P. aeruginosa FADDI-PA025 ([9]; FADDI-PA025) [µg/mL] | MIC P. aeruginosa ATCC 27853 ([10]; ATCC 27853) [µg/mL] | also measured
CCCCCCCC(=O)N[C@@H](CCN)C(=O)N[C@H](C(=O)N[C@@H](CN)C(=O)N[C@H]1CCNC(=O)[C@H]([C@@H](C)O)NC(=O)[C@H](CCN)NC(=O)[C@H](CCN)NC(=O)[C@H](C)NC(=O)[C@@H](CC(C)C)NC(=O)[C@H](CCN)NC1=O)[C@@H](C)O [Lipopeptide F271] (HELM PEPTIDE1{[CCCCCCCC(=O)[*:2]].[Dab].T.[NC[C@H](N[*:1])C(=O)[*:2]].[Dab].[Dab].[dL].A.[Dab].[Dab].T}$PEPTIDE1,PEPTIDE1,5:R3-11:R2$$$V2.0) | 5.18 | −2.27 | 5.01 Log10 CFU/mL blood and 5.37 Log10 CFU/mL blood and 5.15 Log10 CFU/mL blood | -2.43 Log10 CFU/mL blood and -2.08 Log10 CFU/mL blood and -2.30 Log10 CFU/mL blood | 0 (SQS 0 = no significant change (overall score, <1)) | 3/3 | <0.125 | <0.125 | 0.25 (≈ 0.227 µM) | 0.25 (≈ 0.227 µM) | 0.5 (≈ 0.455 µM) | 1 (≈ 0.91 µM) | 16 (≈ 14.6 µM) | 0.5 (≈ 0.455 µM) | 
CCCCCCCC(=O)N[C@@H](CCN)C(=O)N[C@H](C(=O)N[C@H](CN)C(=O)N[C@H]1CCNC(=O)[C@H]([C@@H](C)O)NC(=O)[C@H](CCN)NC(=O)[C@H](CCN)NC(=O)[C@H]([C@@H](C)O)NC(=O)[C@@H](CC(C)C)NC(=O)[C@H](CCN)NC1=O)[C@@H](C)O [Lipopeptide F300] (HELM PEPTIDE1{[CCCCCCCC(=O)[*:2]].[Dab].T.[NC[C@@H](N[*:1])C(=O)[*:2]].[Dab].[Dab].[dL].T.[Dab].[Dab].T}$PEPTIDE1,PEPTIDE1,5:R3-11:R2$$$V2.0) | 5.31 | −1.53 | 5.76 Log10 CFU/mL blood and 5.85 Log10 CFU/mL blood and 4.64 Log10 CFU/mL blood and 4.99 Log10 CFU/mL blood | -1.08 Log10 CFU/mL blood and -1.00 Log10 CFU/mL blood and -2.20 Log10 CFU/mL blood and -1.85 Log10 CFU/mL blood | +2 (SQS + 2 = mild to moderate damage (overall score, 15 to <30)) | 3/3 | <0.125 | <0.125 | <0.125 | <0.125 | 0.25 (≈ 0.221 µM) | 1 (≈ 0.885 µM) | 4 (≈ 3.54 µM) | 0.25 (≈ 0.221 µM) | MIC, No Survanta ([10]; ATCC 27853): 1 µg/mL (≈ 0.885 µM)
CCCCCCCCC(=O)N[C@@H](CCN)C(=O)N[C@H](C(=O)N[C@@H](CN)C(=O)N[C@H]1CCNC(=O)[C@H]([C@@H](C)O)NC(=O)[C@H](CCN)NC(=O)[C@H](CCN)NC(=O)[C@H](CC)NC(=O)[C@@H](CC(C)C)NC(=O)[C@H](CCN)NC1=O)[C@@H](C)O [Lipopeptide F314] (HELM PEPTIDE1{[CCCCCCCCC(=O)[*:2]].[Dab].T.[NC[C@H](N[*:1])C(=O)[*:2]].[Dab].[Dab].[dL].[Abu].[Dab].[Dab].T}$PEPTIDE1,PEPTIDE1,5:R3-11:R2$$$V2.0) | 4.33 | −2.82 | 4.52 Log10 CFU/mL blood and 4.04 Log10 CFU/mL blood and 4.42 Log10 CFU/mL blood | -2.63 Log10 CFU/mL blood and -3.10 Log10 CFU/mL blood and -2.72 Log10 CFU/mL blood | +1 (SQS + 1 = mild damage (overall score, 1 to <15)) | 3/3 | <0.125 | 0.25 (≈ 0.222 µM) | 2 (≈ 1.77 µM) | 0.5 (≈ 0.443 µM) | 0.5 (≈ 0.443 µM) | 2 (≈ 1.77 µM) | >32 | 1 (≈ 0.887 µM) | 
CC[C@@H]1NC(=O)[C@@H](CC(C)C)NC(=O)[C@H](CCN)NC(=O)[C@@H](NC(=O)[C@H](CN)NC(=O)[C@@H](NC(=O)[C@H](CCN)NC(=O)c2c(Cl)cccc2Cl)[C@@H](C)O)CCNC(=O)[C@H]([C@@H](C)O)NC(=O)[C@H](CCN)NC(=O)[C@H](CCN)NC1=O [Lipopeptide F360] (HELM PEPTIDE1{[O=C(c1c(Cl)cccc1Cl)[*:2]].[Dab].T.[NC[C@H](N[*:1])C(=O)[*:2]].[Dab].[Dab].[dL].[Abu].[Dab].[Dab].T}$PEPTIDE1,PEPTIDE1,5:R3-11:R2$$$V2.0) | 7.04 | −0.07 | 7.26 Log10 CFU/mL blood and 6.45 Log10 CFU/mL blood and 7.41 Log10 CFU/mL blood | 0.15 Log10 CFU/mL blood and -0.66 Log10 CFU/mL blood and 0.30 Log10 CFU/mL blood | 0 (SQS 0 = no significant change (overall score, <1)) | 3/3 | 1 (≈ 0.862 µM) | 0.5 (≈ 0.431 µM) | 8 (≈ 6.9 µM) | 4 (≈ 3.45 µM) | 16 (≈ 13.8 µM) | 4 (≈ 3.45 µM) | 4 (≈ 3.45 µM) | 0.5 (≈ 0.431 µM) | 
CC[C@@H]1NC(=O)[C@@H](CC(C)C)NC(=O)[C@H](CCN)NC(=O)[C@@H](NC(=O)[C@H](CN)NC(=O)[C@@H](NC(=O)[C@H](CCN)NC(=O)c2cccc(Cl)c2)[C@@H](C)O)CCNC(=O)[C@H]([C@@H](C)O)NC(=O)[C@H](CCN)NC(=O)[C@H](CCN)NC1=O [Lipopeptide F371] (HELM PEPTIDE1{[O=C(c1cccc(Cl)c1)[*:2]].[Dab].T.[NC[C@H](N[*:1])C(=O)[*:2]].[Dab].[Dab].[dL].[Abu].[Dab].[Dab].T}$PEPTIDE1,PEPTIDE1,5:R3-11:R2$$$V2.0) | 4.61 | −3.33 | 4.74 Log10 CFU/mL blood and 4.86 Log10 CFU/mL blood and 4.22 Log10 CFU/mL blood | -3.20 Log10 CFU/mL blood and -3.08 Log10 CFU/mL blood and -3.71 Log10 CFU/mL blood | 0 (SQS 0 = no significant change (overall score, <1)) |  |  |  |  |  |  |  |  |  | Kidney histopathology, mice with the SQS score [2, 11]: 3/3; MIC K. pneumoniae FADDI-KP032 ([3]; carbapenem-resistant isolate): 0.5 µg/mL (≈ 0.444 µM); MIC K. pneumoniae FADDI-KP065 ([4]; carbapenem-resistant isolate): 1 µg/mL (≈ 0.888 µM); MIC A. baumannii FADDI-AB034 ([5]; carbapenem-resistant isolate): 1 µg/mL (≈ 0.888 µM); MIC A. baumannii FADDI-AB030 ([6]; carbapenem-resistant isolate): 1 µg/mL (≈ 0.888 µM); MIC A. baumannii ATCC 19606 [7]: 4 µg/mL (≈ 3.55 µM); MIC P. aeruginosa FADDI-PA038 ([8]; carbapenem-resistant isolate): 2 µg/mL (≈ 1.78 µM); MIC P. aeruginosa FADDI-PA025 ([9]; MDR clinical isolate): 1 µg/mL (≈ 0.888 µM); MIC P. aeruginosa ATCC 27853 [10]: 0.5 µg/mL (≈ 0.444 µM)

Reference: publication PMC8956739, “A synthetic lipopeptide targeting top-priority multidrug-resistant Gram-negative pathogens” (Nature Communications, 2022)
